Source: ChEMBL document CHEMBL1148555, “Macrocyclic peptidomimetic inhibitors of beta-secretase (BACE): first X-ray structure of a macrocyclic peptidomimetic-BACE complex” (Bioorg Med Chem Lett, 2006)

Assays:
Beta-secretase 1 = Beta-secretase 1 (Homo sapiens, UniProt P56817); assay: Inhibition of recombinant human BACE1 in FRET assay
[1] = Inhibition of Abeta peptide production in HEK293 cells overexpressing APP751swe; format: functional, cell-based; details: Homo sapiens

Beta-secretase 1, sequence (P56817 whole entry): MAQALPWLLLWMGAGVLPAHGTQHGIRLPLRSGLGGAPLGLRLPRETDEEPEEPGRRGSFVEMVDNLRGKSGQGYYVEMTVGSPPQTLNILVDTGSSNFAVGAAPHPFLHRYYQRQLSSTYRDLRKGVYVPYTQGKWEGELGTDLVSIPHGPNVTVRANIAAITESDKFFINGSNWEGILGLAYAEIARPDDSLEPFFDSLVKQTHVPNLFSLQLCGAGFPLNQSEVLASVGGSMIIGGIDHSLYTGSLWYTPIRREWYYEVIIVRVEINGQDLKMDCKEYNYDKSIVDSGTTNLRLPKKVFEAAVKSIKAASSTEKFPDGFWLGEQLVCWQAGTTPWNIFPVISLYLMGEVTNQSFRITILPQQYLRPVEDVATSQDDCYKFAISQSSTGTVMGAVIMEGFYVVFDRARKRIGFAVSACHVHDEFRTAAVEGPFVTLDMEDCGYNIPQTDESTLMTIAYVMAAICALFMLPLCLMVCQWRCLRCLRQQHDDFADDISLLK

| IC50 (Beta-secretase 1) [µM] | IC50 [1] [nM] | SMILES |
| --- | --- | --- |
| 9.7 | > 100000 | CC(C)[C@H](NC(=O)CC[C@H](O)[C@@H]1CCCCCC[C@H](NC(=O)OC(C)(C)C)C(=O)N[C@@H](C)C(=O)N1)C(=O)NCc1ccccc1 |
| – | 2830 | CC(C)[C@H](NC(=O)OC(C)(C)C)C(=O)N[C@@H](C)C(=O)N[C@@H](Cc1ccccc1)[C@@H](O)C[C@@H](C)C(=O)N[C@H](C(=O)NCc1ccncc1)C(C)C |
